Measured values from US8080529B2, “Macrolides with anti-inflammatory activity” (Glaxo Group Limited, priority 2005, dated 2011).
Like-named read-outs stand apart in the source and are kept apart here.

Assays:
Type in all cases: cell-based
A549 = assay: Cytotoxicity assay (MTT), A549 cell line; conditions: 24 h
Experimental: (§1) To determine whether the anti-inflammatory activity of the test compounds was due to observed inhibition of cytokine production and inhibition of proliferation in vitro, and was not a consequence of cellular cytotoxicity, measurement of succinate dehydrogenase activity in living cells was performed. Cells were cultured for 24 h in RPM medium as described above at 37° C. the presence of the test compounds at concentrations of 50 μM and 12.5 μM. MTT [3-(4,5-dimethylthiazole-2-yl)-2,5-diphenyl tetrazolium bromide] (Promega, USA), a detection reagent, was then added and the cultures were incubated for 0.5-2 h. The amount of MTT-Formazan produced was determined using a spectrophotometer at 490 nm (Mosmann, J. Immunol. Methods, 1983, 65: 55-63).
(§2) The percentage of inhibition of cell growth was calculated using the following formula: % inhibition of cell growth=[…].

Hep G2 = assay: Cytotoxicity assay (MTT), Hep G2 cell line; conditions: 24 h
Experimental: as §1, §2

IL-1α = assay: Inhibition of IL-1 production by stimulated human peripheral blood leukocytes in vitro; conditions: Homo sapiens, Leukocyte, read-out: Percentage of inhibition of IL-1α production
IL-6 = assay: Inhibition of IL-6 production by stimulated human peripheral blood leukocytes in vitro; conditions: Homo sapiens, Leukocyte, read-out: Percentage of inhibition of IL-6 production
Experimental: (§3) Test substances used in in vitro experiments were dissolved in dimethyl sulfoxide (DMSO) (Kemika, Croatia) at concentrations of 50 mM and 10 mM, and were further diluted to final concentrations of 50 μM and 10 μM in 1 mL Dulbecco's modified Eagle medium (DMEM) supplemented with 1% heat inactivated fetal bovine serum (FBS), 1% L-glutamine, 50 U/ml penicillin, 50 μg/ml streptomycin and 2.5 μg/mL Fungizone (amphotericin B). Media and all media supplements were purchased from Gibco, Australia, except the FBS was purchased from Sigma, USA.
(§4) Peripheral blood leukocytes (PBL) were obtained from venous blood of healthy volunteers by sedimentation on 2% dextran T-500 (Amersham Biosciences, USA) and subsequent centrifugations of leukocyte rich plasma.
(§5) Peripheral blood leukocytes (PBL), isolated as described above, were seeded in a 48-well plate at a concentration of 3 to 5×10^6 cell per well in culture medium consisting of RPMI 1640 medium (Institute of Immunology, Croatia) supplemented with 10% heat-inactivated fetal calf serum (FCS, Biowhittaker, USA), 100 U/ml penicillin (Gibco, Australia), 100 μg/ml streptomycin (Gibco, Australia) and 2 mM L-glutamine (Gibco, Australia), and preincubated with the test compounds for 2 h at 37° C., in an atmosphere of 5% CO2, and 90% humidity. Then, stimuli (Sigma, USA) were added to a final concentration of 2 μg/mL lipopolysaccharide (LPS), 1 μg/mL phorbol 12-myristate 13-acetate (PMA) or 120 μg/mL zymosan. Samples were incubated overnight under conditions described above. At the end of incubation, the supernatants were transferred to eppendorf tubes and centrifuged for 10 min at 1500×g. Concentrations of human TNF-α, IL-1β, IL-6 and IL-8 were determined in cell supernatants by sandwich ELISA, using capture and detection antibodies (R&D Systems, Minneapolis, Minn.) according to the manufacturer's recommendations.
(§6) Inhibition (as percentage) was calculated using the following formula: % inhibition=(1−concentration of cytokines in sample/concentration of cytokines in positive control)×100.
(§7) The positive control refers to LPS-, PMA- or zymosan-stimulated samples that were not preincubated with test compounds.

TNF-α = assay: Inhibition of TNF-α production by stimulated human peripheral blood leukocytes in vitro; conditions: Homo sapiens, Leukocyte, read-out: Percentage of inhibition of TNF-α production
Experimental: as §3, §4, §5, §6, §7

IL-8 = assay: Inhibition of IL-8 production by stimulated human peripheral blood leukocytes in vitro; conditions: Homo sapiens, Leukocyte, read-out: Percentage of inhibition of IL-8 production
Experimental: as §3, §4, §5, §6, §7

Row | SMILES | Percentage of inhibition of cell growth (A549; 12.5 μM) | Percentage of inhibition of cell growth (A549; 50 μM) | Percentage of inhibition of cell growth (Hep G2; 12.5 μM) | Percentage of inhibition of cell growth (Hep G2; 50 μM) | inhibition at 10 µM (IL-1α; LPS-stimulated PBL) | inhibition at 10 µM (IL-1α; PMA-stimulated PBL) | inhibition at 10 µM (IL-1α; zymosan-stimulated PBL) | inhibition at 50 µM (IL-1α; LPS-stimulated PBL) | inhibition at 50 µM (IL-1α; PMA-stimulated PBL) | inhibition at 50 µM (IL-1α; zymosan-stimulated PBL) | inhibition at 10 µM (IL-6; LPS-stimulated PBL) | inhibition at 10 µM (IL-6; PMA-stimulated PBL) | inhibition at 10 µM (IL-6; zymosan-stimulated PBL) | inhibition at 50 µM (IL-6; LPS-stimulated PBL) | inhibition at 50 µM (IL-6; PMA-stimulated PBL) | inhibition at 50 µM (IL-6; zymosan-stimulated PBL) | inhibition at 10 µM (TNF-α; LPS-stimulated PBL) | inhibition at 10 µM (TNF-α; PMA-stimulated PBL) | inhibition at 10 µM (TNF-α; zymosan-stimulated PBL) | inhibition at 50 µM (TNF-α; LPS-stimulated PBL) | further results
1 | CC[C@H]1OC(=O)[C@H](C)[C@@H](O[C@H]2C[C@@](C)(OC)[C@@H](OC(=O)CCN3CCN(CCOCCO)CC3)[C@H](C)O2)[C@H](C)[C@@H](O[C@@H]2O[C@H](C)C[C@H](N(C)C)[C@H]2O)[C@](C)(OC)C[C@@H](C)C(=O)N[C@H](C)[C@@H](O)[C@]1(C)O [Example 18] | 0% | 0% | 5% | 3% | 16% | 34% | 51% | 45% | 68% | 90% | 10% | 33% | 34% | 23% | 61% | 63% | 9% | 38% | 21% | 12% | inhibition at 50 µM (TNF-α; PMA-stimulated PBL): 57%; inhibition at 50 µM (TNF-α; zymosan-stimulated PBL): 30%; inhibition at 10 µM (IL-8; LPS-stimulated PBL): 6%; inhibition at 10 µM (IL-8; PMA-stimulated PBL): 7%; inhibition at 10 µM (IL-8; zymosan-stimulated PBL): 25%; inhibition at 50 µM (IL-8; LPS-stimulated PBL): 0%; inhibition at 50 µM (IL-8; PMA-stimulated PBL): 0%; inhibition at 50 µM (IL-8; zymosan-stimulated PBL): 22%
2 | CC[C@H]1OC(=O)[C@H](C)[C@@H](O[C@H]2C[C@@](C)(OC)[C@@H](OC(=O)CCN3CCN(CCCN4CCCCC4)CC3)[C@H](C)O2)[C@H](C)[C@@H](O[C@@H]2O[C@H](C)C[C@H](N(C)C)[C@H]2O)[C@](C)(OC)C[C@@H](C)C(=O)N[C@H](C)[C@@H](O)[C@]1(C)O [Example 22] | 5% | 0% | 3% | 1% | 5% | 14% | 57% | 46% | 56% | 76% | 3% | 16% | 28% | 28% | 60% | 51% | 0% | 0% | 0% | 23% | inhibition at 50 µM (TNF-α; PMA-stimulated PBL): 55%; inhibition at 50 µM (TNF-α; zymosan-stimulated PBL): 35%; inhibition at 10 µM (IL-8; LPS-stimulated PBL): 0%; inhibition at 10 µM (IL-8; PMA-stimulated PBL): 0%; inhibition at 10 µM (IL-8; zymosan-stimulated PBL): 10%; inhibition at 50 µM (IL-8; LPS-stimulated PBL): 5%; inhibition at 50 µM (IL-8; PMA-stimulated PBL): 15%; inhibition at 50 µM (IL-8; zymosan-stimulated PBL): 30%
3 | CC[C@H]1OC(=O)[C@H](C)[C@@H](O[C@H]2C[C@@](C)(OC)[C@@H](OC(=O)CCNC(C)C)[C@H](C)O2)[C@H](C)[C@@H](O[C@@H]2O[C@H](C)C[C@H](N(C)C)[C@H]2O)[C@](C)(OC)C[C@@H](C)C(=O)N[C@H](C)[C@@H](O)[C@]1(C)O [Example 23] | 0% | 0% | 6% | 5% | 2% | 12% | 67% | 39% | 69% | 75% | 0% | 20% | 35% | 14% | 59% | 45% | 0% | 5% | 0% | 19% | inhibition at 50 µM (TNF-α; PMA-stimulated PBL): 54%; inhibition at 50 µM (TNF-α; zymosan-stimulated PBL): 37%; inhibition at 10 µM (IL-8; LPS-stimulated PBL): 0%; inhibition at 10 µM (IL-8; PMA-stimulated PBL): 0%; inhibition at 10 µM (IL-8; zymosan-stimulated PBL): 22%; inhibition at 50 µM (IL-8; LPS-stimulated PBL): 10%; inhibition at 50 µM (IL-8; PMA-stimulated PBL): 15%; inhibition at 50 µM (IL-8; zymosan-stimulated PBL): 43%
